Assay results: ChEMBL document CHEMBL3769364, “Synthesis and structure-activity relationship studies of novel 3,9-substituted α-carboline derivatives with high cytotoxic activity against colorectal cancer cells” (Eur J Med Chem, 2016)

Columns and labels:
[1] = Cytotoxicity against human HL60 cells after 48 hrs by MTT assay; conditions: HL-60, 48 h
[2] = Cytotoxicity against human COLO205 cells after 48 hrs by MTT assay; conditions: COLO 205, 48 h
[3] = Cytotoxicity against human Hep3B cells after 48 hrs by MTT assay
[4] = Cytotoxicity against human H460 cells after 48 hrs by MTT assay; conditions: NCI-H460, 48 h
A498 = experiment: Cytotoxicity against human A498 cells after 48 hrs by MTT assay; conditions: A498, 48 h
Detroit 551 = experiment: Cytotoxicity against human Detroit 551 cells after 48 hrs by MTT assay; conditions: Detroit 551, 48 h

SMILES	IC50 [1]	IC50 [2]	IC50 [3]	IC50 [4]	IC50 (A498)	IC50 (Detroit 551)
COC(=O)c1cnc2c(c1)c1ccccc1n2Cc1ccc2c(c1)OCO2	> 50 µM	> 50 µM	> 50 µM	> 50 µM	> 50 µM	> 50 µM
COC(=O)c1cnc2c(c1)c1ccccc1n2Cc1cccs1	> 50 µM	> 50 µM	> 50 µM	> 50 µM	> 50 µM	> 50 µM
COC(=O)c1cnc2c(c1)c1ccccc1n2Cc1ccccc1F	> 50 µM	> 50 µM	> 50 µM	> 50 µM	> 50 µM	> 50 µM
COC(=O)c1cnc2c(c1)c1ccccc1n2Cc1ccc(OC)cc1	> 50 µM	> 50 µM	> 50 µM	> 50 µM	> 50 µM	–
COc1cc(Cn2c3ccccc3c3cc(C(=O)O)cnc32)cc(OC)c1OC	> 50 µM	–	–	–	–	> 50 µM
OCc1cnc2c(c1)c1ccccc1n2Cc1ccco1	> 50 µM	> 50 µM	> 50 µM	> 50 µM	> 50 µM	> 50 µM
COC(=O)c1cnc2c(c1)c1ccccc1n2Cc1ccco1	> 50 µM	> 50 µM	> 50 µM	> 50 µM	> 50 µM	> 50 µM
OCc1cnc2c(c1)c1ccccc1n2Cc1c(F)cccc1F	–	> 50 µM	> 50 µM	> 50 µM	> 50 µM	–
COC(=O)c1cnc2c(c1)c1ccccc1n2Cc1ccccc1	> 50 µM	> 50 µM	> 50 µM	> 50 µM	> 50 µM	> 50 µM
OCc1cnc2c(c1)c1ccccc1n2Cc1ccsc1	> 50 µM	> 50 µM	–	> 50 µM	> 50 µM	> 50 µM
COC(=O)c1cnc2c(c1)c1ccccc1n2Cc1ccc(F)cc1F	> 50 µM	> 50 µM	> 50 µM	> 50 µM	> 50 µM	> 50 µM
COC(=O)c1cnc2c(c1)c1ccccc1n2Cc1cccc(Cl)c1Cl	–	> 50 µM	> 50 µM	> 50 µM	> 50 µM	> 50 µM
OCc1cnc2c(c1)c1ccccc1n2Cc1ccc2c(c1)OCO2	–	> 50 µM	> 50 µM	> 50 µM	> 50 µM	–
O=C(O)c1cnc2c(c1)c1ccccc1n2Cc1ccccc1	> 100 µM	> 50 µM	> 100 µM	> 100 µM	> 50 µM	> 100 µM
COc1cc(Cn2c3ccccc3c3cc(C(=O)O)cnc32)cc(OC)c1	–	> 50 µM	–	> 50 µM	–	> 100 µM
COC(=O)c1cnc2c(c1)c1ccccc1n2Cc1cccc(OC)c1	–	> 50 µM	–	–	> 50 µM	> 50 µM
COC(=O)c1cnc2c(c1)c1ccccc1n2Cc1cc(F)ccc1F	–	> 50 µM	> 50 µM	> 50 µM	> 50 µM	–
COC(=O)c1cnc2c(c1)c1ccccc1n2Cc1c(F)cccc1F	> 50 µM	> 50 µM	> 50 µM	> 50 µM	> 50 µM	> 50 µM
OCc1cnc2c(c1)c1ccccc1n2Cc1ccc(Cl)c(Cl)c1	–	–	–	–	–	> 50 µM
COC(=O)c1cnc2c(c1)c1ccccc1n2Cc1ccc(Cl)cc1	> 50 µM	> 50 µM	> 50 µM	> 50 µM	> 50 µM	> 50 µM
OCc1cnc2c(c1)c1ccccc1n2Cc1ccccc1Cl	–	> 50 µM	–	–	–	–
COC(=O)c1cnc2c(c1)c1ccccc1n2Cc1ccc(Cl)c(Cl)c1	–	> 50 µM	> 50 µM	–	> 50 µM	> 50 µM
COC(=O)c1cnc2c(c1)c1ccccc1n2Cc1c(Cl)cccc1Cl	> 50 µM	> 50 µM	> 50 µM	> 50 µM	> 50 µM	> 50 µM
OCc1cnc2c(c1)c1ccccc1n2Cc1ccccc1	–	–	–	–	> 50 µM	–

SMILES	IC50 [1]	IC50 [2]	IC50 [3]	IC50 [4]	IC50 (A498)	IC50 (Detroit 551)
COC(=O)c1cnc2c(c1)c1ccccc1n2Cc1ccccc1Cl	–	> 50 µM	> 50 µM	> 50 µM	> 50 µM	> 50 µM
COC(=O)c1cnc2c(c1)c1ccccc1n2Cc1ccoc1	> 50 µM	> 50 µM	> 50 µM	> 50 µM	> 50 µM	> 50 µM
OCc1cnc2[nH]c3ccccc3c2c1	49.7 µM	–	–	–	–	> 50 µM
COC(=O)c1cnc2c(c1)c1ccccc1n2Cc1cc(OC)cc(OC)c1	–	–	–	–	> 50 µM	–
COc1cccc(Cn2c3ccccc3c3cc(CO)cnc32)c1	–	–	–	–	–	> 50 µM
COC(=O)c1cnc2[nH]c3ccccc3c2c1	–	> 50 µM	> 50 µM	–	–	> 50 µM
COC(=O)c1cnc2c(c1)c1ccccc1n2Cc1ccsc1	> 50 µM	> 50 µM	> 50 µM	> 50 µM	> 50 µM	> 50 µM
OCc1cnc2c(c1)c1ccccc1n2Cc1ccc(Cl)cc1Cl	–	–	–	–	> 50 µM	–
COC(=O)c1cnc2c(c1)c1ccccc1n2Cc1ccc(F)c(F)c1	–	> 50 µM	> 50 µM	> 50 µM	> 50 µM	–
OCc1cnc2c(c1)c1ccccc1n2Cc1ccoc1	> 50 µM	> 50 µM	> 50 µM	> 50 µM	> 50 µM	> 50 µM
COC(=O)c1cnc2c(c1)c1ccccc1n2Cc1ccc(Cl)cc1Cl	> 50 µM	> 50 µM	> 50 µM	> 50 µM	> 50 µM	> 50 µM
OCc1cnc2c(c1)c1ccccc1n2Cc1ccc(F)c(F)c1	–	–	> 50 µM	> 50 µM	> 50 µM	–
OCc1cnc2c(c1)c1ccccc1n2Cc1cccs1	> 50 µM	> 50 µM	> 50 µM	> 50 µM	> 50 µM	> 50 µM
COC(=O)c1cnc2c(c1)c1ccccc1n2Cc1cc(OC)c(OC)c(OC)c1	–	–	–	–	> 50 µM	> 50 µM
OCc1cnc2c(c1)c1ccccc1n2Cc1c(Cl)cccc1Cl	> 50 µM	> 50 µM	–	–	> 50 µM	–
COC(=O)c1cnc2c(c1)c1ccccc1n2Cc1cc(F)cc(F)c1	> 50 µM	> 50 µM	> 50 µM	> 50 µM	> 50 µM	> 50 µM
OCc1cnc2c(c1)c1ccccc1n2Cc1ccc(F)cc1	–	> 50 µM	> 50 µM	> 50 µM	> 50 µM	> 50 µM
OCc1cnc2c(c1)c1ccccc1n2Cc1ccc(Cl)cc1	–	> 50 µM	–	> 50 µM	> 50 µM	> 50 µM
COc1ccc(Cn2c3ccccc3c3cc(CO)cnc32)cc1	–	–	> 50 µM	> 50 µM	–	> 50 µM
COc1cc(Cn2c3ccccc3c3cc(CO)cnc32)cc(OC)c1	–	–	–	–	–	> 50 µM
COC(=O)c1cnc2c(c1)c1ccccc1n2Cc1cccc(Cl)c1	–	> 50 µM	> 50 µM	–	> 50 µM	> 50 µM
COC(=O)c1cnc2c(c1)c1ccccc1n2Cc1ccc(F)cc1	> 50 µM	> 50 µM	> 50 µM	> 50 µM	> 50 µM	> 50 µM
OCc1cnc2c(c1)c1ccccc1n2Cc1ccc(F)cc1F	–	–	> 50 µM	> 50 µM	> 50 µM	> 50 µM
